Measured values from article PMC7309601 (Frontiers in Neuroscience, 2020).

How the values were obtained:
[1] = test system: ACh outflow in the hippocampus; assay: Hippocampal microdialysis and quantification of ACh; format: in vivo, mice
Protocol: Mice were anesthetized with isoflurane, placed in a stereotaxic frame and bilaterally implanted with probes in both left and right hippocampi.
Concentrations of ACh in the microdialysis samples were analyzed by the Pronexus Analytical AB company (Stockholm, Sweden) using UHPLC tandem mass spectrometry (MS/MS). Briefly, the UHPLC-MS/MS system included a PAL autosampler (CTC Analytics, Zwingen, Switzerland), an Advance UHPLC pump, and an EVOQ Elite triple quadrupole mass spectrometer (Bruker Daltonics, Fremont, CA, United States) equipped with electrospray ionization source operating in a positive mode at +4,500 V. The source parameters were as follows: probe gas flow: 50, nebulizer gas flow: 60, probe temperature: +300°C, cone gas flow: 30, cone temperature: +200°C, CID gas: Ar 1.5 mTorr. A Titan PFP column (100 × 2.1 mm, 1.9 μm, 120 Å pore size) purchased from Sigma-Aldrich (Sweden) was used for UHPLC. Deuterated ACh (acetylcholine-1,1,2,2-d4 bromide; ACh-d4), used as internal standard, was purchased from C/D/N Isotopes (QMX Laboratories, Dunmow CM6 2PY, United Kingdom). Typically, 10 μL of aCSF or hippocampal microdialysate was mixed with 20 μL of ACh-d4 internal standard (50 nM, in aCSF), and 5 μL of the mixture was injected into the column. The mobile phase A was 0.1% (vol/vol) formic acid in water; the mobile phase B was acetonitrile with 0.1% formic acid. The linear elution gradient was as follows: 0–0.5 min: 5% B; 3.5 min: 55% B; 3.6 to 4.0 min: 70% B; 4.1 min, 5% B. The flow rate was 400 μL/min, and the total run-to-run time was 4.8 min. The calibration curve was linear in the range of 0.1 to 409.6 nM ACh (R^2 = 0.999); the estimated limit of detection was 0.05 nM, and the lower limit of quantification was 0.15 nM.
. 1 mg/kg, i.p.), or vehicle (NaCl 0.9%). Values are expressed as means ± SEM, n = 4–7 per group. Two-way ANOVA followed by Fisher least significant difference: *P < 0.05, **P < 0.01 vs Vehicle; […]. Acetylcholinesterase activity is expressed as percent of that determined in the absence of drugs. […]

[2] = test system: astrocyte Cx expression; parameters: method as in Biswas et al., 2018; conditions: ref Biswas et al., 2018; cited from earlier work
[3] = test system: scopolamine-treated mice; assay: Novel object recognition (NOR) task after scopolamine challenge; format: in vivo; conditions: scopolamine 0.5 mg/kg s.c.
Protocol: Both novel object recognition (NOR) and novel object location (NOL) tests were carried out in an open-field arena during three phases ([Leger et al., 2013]; [Vogel-Ciernia and Wood, 2014]; [Lueptow, 2017]). (i) For the habituation phase on the first day, mice were allowed to freely explore the empty apparatus. (ii) On the second day, two identical objects were placed at two opposite edges of the arena. Time spent by the mouse exploring the two objects was recorded. (iii) Twenty-four hours later, one of the two familiar objects was replaced by a novel one (NOR) or displaced (NOL). Mice were allowed to explore the whole arena during 10 min for each of the three phases. The preference index was calculated as the ratio of the duration of contacts with the novel/displaced object over the total duration of contacts with the two objects. Locomotion was recorded using EthoVision software (Noldus, Paris, France).

[4] = test system: scopolamine-treated mice; assay: Y-maze spontaneous alternation task after scopolamine challenge; conditions: scopolamine 0.5 mg/kg s.c.
Protocol: Mefloquine (Sigma-Aldrich, L’Isle d’Abeau Chesnes, France) and DPZ (Sigma-Aldrich) were dissolved in 2% dimethyl sulfoxide (DMSO) and administered acutely either intraperitoneally (i.p.) (5 mL/kg) or by oral gavage (p.o.) (10 mL/kg). Scopolamine (Sigma-Aldrich) was administered subcutaneously (s.c.) (5 mL/kg) in saline solution (0.9% NaCl).
Mice were placed at the end of one arm of a Y-maze and allowed to move freely through the maze during an 8-min session. Spontaneous alternation was defined as entries into all three arms on consecutive occasions. […] The number of total arm entries during the 8-min session was used to quantify locomotor activity.

[5] = test system: Aβ25–35 peptide-injected mice; assay: Morris water maze in Aβ25–35-injected mice
Excerpt: Control groups received the vehicles only under the very same conditions (volume, time, route of administration) as tested drugs.
Both peptides Aβ25–35 and Sc.Aβ (scramble Aβ25–35) were purchased from PolyPeptides (Strasbourg, France).
Mice were placed in a circular pool with external cues in the room. […] Training consisted of three swims with 20-min intertrial time each day for 5 days, performed between days 11 and 15 after Aβ25–35 peptide or Sc.Aβ peptide i.c.v. injection. Random starting positions were selected each day, and each animal was allowed a 90-s swim to find the platform. Probe test was performed 24 h after the last swim (day 16 after peptide injection). The platform was removed, and each animal was allowed a free 60-s swim. The time spent in each quadrant was determined. Swimming was recorded using EthoVision software (Noldus).

[6] = test system: scopolamine-treated mice injected with sh-GFP, sh-Cx30 or sh-Cx43; assay: Novel object location (NOL) task in lentiviral vector-injected, scopolamine-treated mice; format: in vivo

SMILES: COc1cc2c(cc1OC)C(=O)C(CC1CCN(Cc3ccccc3)CC1)C2 (stereo not drawn) [DPZ, Donepezil]
- Hippocampal ACh outflow ([1]; DPZ 0.25 mg/kg i.p. alone): did not significantly modify ACh outflow
- Increase of hippocampal ACh levels ([1]; DPZ 1 mg/kg i.p., 20 min after injection): up to 2.5 fold
- Astrocyte Cx expression levels [2]: not to significantly alter astrocyte Cx expression levels
- NOR test session: effect on scopolamine-induced loss of novel object preference ([3]; DPZ 0.25 mg/kg i.p.): Neither MEF1 i.p., nor DPZ0.25 i.p., prevented the scopolamine effect
- NOR test session: effect on scopolamine-induced loss of novel object preference ([3]; DPZ 1 mg/kg i.p.): restore exploration preference of the novel object
- Spontaneous alternation (Y-maze): effect on scopolamine-induced deficit ([4]; DPZ 0.1 mg/kg i.p. 40 min before task): exerted no effect
- Spontaneous alternation (Y-maze): effect on scopolamine-induced deficit ([4]; DPZ 0.25 mg/kg p.o. 40 min before task): did not reverse scopolamine-induced deficit
- Spontaneous alternation (Y-maze): effect on scopolamine-induced deficit ([4]; DPZ 0.5 mg/kg i.p. 40 min before task): significantly reversed the scopolamine-induced deficit
- Morris water maze learning (swim latency): effect on Aβ-induced memory deficit ([5]; DPZ 0.25 mg/kg p.o. daily): showed no effect
- Morris water maze probe test: time spent in target quadrant ([5]; DPZ 1 mg/kg p.o. daily, day 16): restored performance up to the level noted in Sc.Aβ-injected control mice
- Morris water maze learning (swim latency): effect on Aβ-induced memory deficit ([5]; DPZ 1 mg/kg p.o. daily, learning days 2 to 5): significantly reversed the Aβ-induced memory deficits
- NOL task: effect on scopolamine-induced memory deficit ([6]; DPZ 0.25 mg/kg i.p., sh-Cx30 group): significantly reduced the scopolamine effect
- NOL task: effect on scopolamine-induced memory deficit ([6]; DPZ 0.25 mg/kg i.p., sh-Cx43 group): significantly reduced the scopolamine effect
- NOL task: effect on scopolamine-induced memory deficit ([6]; DPZ 0.25 mg/kg i.p., sh-GFP injected mice): unable to prevent the memory deficit caused by scopolamine
- NOL task: effect on scopolamine-induced memory deficit ([6]; DPZ 1 mg/kg i.p., all groups (sh-GFP, sh-Cx30, sh-Cx43)): able to prevent NOL memory deficits induced by scopolamine
